{"source": "patent US9517244B2", "about": "“Therapeutic combinations for use in neoplasia” (University of Florida Research Foundation, Inc., priority 2011, dated 2016)", "key": {"Fen1": {"target": "Fen1 (Homo sapiens, UniProt P39748)", "sequence (P39748 whole entry, species assumed)": "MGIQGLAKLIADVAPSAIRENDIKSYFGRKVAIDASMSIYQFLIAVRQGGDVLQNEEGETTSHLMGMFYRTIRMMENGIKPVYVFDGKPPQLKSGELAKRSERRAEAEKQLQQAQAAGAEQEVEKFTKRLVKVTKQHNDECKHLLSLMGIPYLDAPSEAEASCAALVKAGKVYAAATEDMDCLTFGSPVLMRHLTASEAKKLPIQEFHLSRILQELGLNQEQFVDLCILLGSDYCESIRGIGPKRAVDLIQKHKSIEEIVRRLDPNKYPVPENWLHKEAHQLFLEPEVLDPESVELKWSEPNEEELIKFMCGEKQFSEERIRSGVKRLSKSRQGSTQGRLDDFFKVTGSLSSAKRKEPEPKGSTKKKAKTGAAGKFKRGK", "experiment": "Fen1 activity in vitro", "assay_type": "biochemical", "conditions": "0.5-5 μM; Fen1 1 nM", "procedure": "Lanes 4-7 contained increasing concentrations of NSC-30049 (0.5, 1, 2.5, and 5 μM, respectively). The arrows indicate the positions of the 63-mer substrate and the products. […] Data are representative of three different experiments."}, "[1]": {"system": "HCT-116+ch3 (MMR proficient) xenograft", "experiment": "xenograft model of colon cancer, tumor volume", "assay_type": "in vivo", "conditions": "NSC-30049 2.5 mg/kg i.p. + temozolomide 20 mg/kg i.p., day 38", "procedure": "(§1) FIG. 10A is a schematic representation of the experimental protocol. […] Data are the mean±SD of four to six animals in each group.\n(§2) Xenograft models of colon cancer were used to test the effect of NSC-30049 as a chemopreventive agent when administered in combination with temozolomide. At day 0, the xenograft host was administered with cells from a colon cancer cell line (HCT-116, MMR deficient; HCT-116+ch3, MMR proficient). Thereafter, temozolomide (20 mg/kg body weight; intraperitoneal) and/or NSC-30049 (2.5 mg/kg body weight; intraperitoneal) were administered to the animals. Tumor growth was evaluated at day 38."}, "[2]": {"system": "HCT-116 (MMR deficient) xenograft", "experiment": "xenograft model of colon cancer, tumor volume", "assay_type": "in vivo", "conditions": "NSC-30049 2.5 mg/kg i.p. + temozolomide 20 mg/kg i.p., day 38", "procedure": "as §1, §2"}, "colon cancer stem cells": {"system": "colon cancer stem cells", "experiment": "cell growth inhibition of colon cancer stem cells", "assay_type": "cell-based, human", "conditions": "Homo sapiens, 72 h", "procedure": "Cells were treated with 1.25 μM of NSC-30049 and 1.25 μM of OPT either alone or in combination for 72 h. Data are mean±SD of triplicate experiments. […] Cells were treated with 1.25 μM of NSC-30049 and 1.25 μM of OPT either alone or in combination for 72 h. Fold change in gene expression values is shown as mean±SD of three experiments and are normalized to GAPDH gene expression.\nThe effect of administration of NSC-30049 in combination with oxaliplatin (OPT) was also examined in human parental cancer cells and colon cancer stem cells (FIG. 9A). Cells were treated with 1.25 μM of NSC-30049 and […] of OPT either alone or in combination for 72 h. Cell growth inhibition was assayed. Data presented are mean±SD of triplicate experiments."}}, "data": [{"smiles": "ClCC=CC[N+]12CN3CN(CN(C3)C1)C2", "note": "[NSC-30049, 1-(4-Chloro-2-butenyl)-1λ˜5˜,3,5,7-tetraazatricyclo[3.3.1.1˜3,7˜]decane]", "values": [{"measurement": "effect on Fen1 activity", "setting": "Fen1", "value": "did not affect Fen1 activity"}, {"measurement": "inhibition of tumor growth (tumor volume)", "setting": "[1]", "value": "synergistic effect on the inhibition of tumor growth"}, {"measurement": "inhibition of tumor growth (tumor volume)", "setting": "[2]", "value": "synergistic effect on the inhibition of tumor growth"}, {"measurement": "inhibition at 1.25 µM", "setting": "colon cancer stem cells; 1.25 μM NSC-30049 in combination with 1.25 μM oxaliplatin", "value": "~80", "unit": "%"}, {"measurement": "inhibition at 1.25 µM", "setting": "colon cancer stem cells; alone, 1.25 μM", "value": "~10", "unit": "%"}]}]}
